What was measured:
[1] = molecular target: V. harveyi wild-type CqsS receptor (Vibrio campbellii, UniProt A7N6S2); assay: cell-based; format: cell-based
[2] = molecular target: V. cholerae CqsS receptor (wild-type) (Vibrio cholerae serotype O1, UniProt Q9KM66); format: cell-based
[3] = molecular target: V. cholerae CqsA (Vibrio cholerae serotype O1, UniProt Q9KM65); assay: Coupled-enzyme assay for CqsA enzyme kinetics; format: biochemical; conditions: for Km / Vmax / kcat: Vc CqsA, acyl CoA substrate, 200 µM SAM
[4] = molecular target: V. harveyi CqsA (Vibrio campbellii, UniProt A7N6R9); assay: Coupled-enzyme assay for CqsA enzyme kinetics; format: biochemical; conditions: Vh CqsA, acyl CoA substrate, 200 µM SAM
[5] = molecular target: V. cholerae CqsS C170F (Vibrio cholerae serotype O1, UniProt Q9KM66, C170F); format: cell-based

SMILES: CCCCCCCC(O)C(=O)CC (stereo not drawn) [4-hydroxyundecan-3-one]
- agonist activity on V. harveyi CqsS (light production in JMH626), in words [1]: inactive

SMILES: CCCCCCCCCC(=O)[C@@H](N)CC [Am-CAI-1, (S)-3-aminotridecan-4-one]
- potency relative to hydroxy counterpart ([1]; V. harveyi CqsS, data not shown): comparable to the CAI-1 and C8-CAI-1 counterparts
- potency relative to hydroxy counterpart ([2]; V. cholerae CqsS, data not shown): comparable to the CAI-1 and C8-CAI-1 counterparts

SMILES: CCCCCCCC(=O)SCCNC(=O)CCNC(=O)C(O)C(C)(C)COP(=O)(O)OP(=O)(O)OC[C@H]1O[C@@H](n2cnc3c(N)ncnc32)[C@H](O)[C@@H]1OP(=O)(O)O (stereo partly drawn) [C8 CoA, octanoyl CoA]
- Km [3]: 73 ± 4.9 µM
- Vmax [3]: 1.4 ± 0.05 µM/min
- kcat [3]: 4.5 ± 0.17 min⁻¹
- Km [4]: 14.1 ± 1.3 µM
- Vmax [4]: 0.64 ± 0.02 µM/min
- kcat [4]: 10.7 ± 0.4 min⁻¹

SMILES: CCCCCCCC(=O)C(O)CC (stereo not drawn) [C8-CAI-1, 3-hydroxyundecan-4-one]
- EC50 ([1]; EC50, V. harveyi wild-type CqsS): 5 µM
- agonist activity on V. harveyi CqsS (light production in JMH626), in words [1]: weak agonist
- increase in light production ([1]; JMH626, 10 µM): approximately 400 fold
- light production on increasing the concentration ([1]; JMH626, 50 µM): did not further activate light production

SMILES: CCCCCCCCCC(=O)SCCNC(=O)CCNC(=O)C(O)C(C)(C)COP(=O)(O)OP(=O)(O)OC[C@H]1O[C@@H](n2cnc3c(N)ncnc32)[C@H](O)[C@@H]1OP(=O)(O)O (stereo partly drawn) [C10 CoA, decanoyl coenzyme A]
- substrate preference of V. cholerae CqsA, C10-CoA over C8-CoA (Km and kcat) [3]: four- to sixfold
- Km [3]: 13 ± 3.1 µM
- Vmax [3]: 1.2 ± 0.15 µM/min
- kcat [3]: 19.5 ± 2.5 min⁻¹

SMILES: CCCCCCCCCC(=O)[C@@H](O)CC [CAI-1, (S)-3-hydroxytridecan-4-one]
- agonist activity on V. harveyi CqsS (light production in JMH626), in words [1]: insensitive
- detection by V. cholerae CqsS C170F, in words [5]: only detects Ea-C8-CAI-1 and C8-CAI-1, but not CAI-1 and Ea-CAI-1

SMILES: C/C=C(\N)C(=O)CCCCCCC [Ea-C8-CAI-1, (Z)-3-aminoundec-2-en-4-one]
- agonist activity on V. harveyi CqsS (light production in JMH626), in words [1]: induce maximal light production
- difference in EC50 between C8-CAI-1 and Ea-C8-CAI-1 [2]: 30 fold

— PMC3285556 (Molecular Microbiology, 2011)
